Source: patent publication US20220339176A1, “Methods of Treatments to Prolong Gestation and Complications of Menstruation or Gestation” (priority 2019, published 2022)
Entries after “also recorded” stand apart in the source; their conditions may differ. Structures can show the parent of a compound that is named as a salt.

Key:
Pregnant C57BL/6 mice [1] = test: mouse model of moderate preterm birth (2 mg/kg LPS); type: in vivo; conditions: for gestation in vivo: 2 mg/kg LPS on D15, compounds intraperitoneal every 8 hours beginning 8 hours after LPS
Procedure: Provided in FIGS. 6A and 6B are an experimental schematic and results of compound treatment in mouse models of moderate preterm birth. Pregnant C57BL/6 mice were intraperitoneally administered 2 mg/kg LPS (Escherichia coli 0127:B8, chromatographically pure, Sigma-Aldrich) or PBS (as control) on D15. Mice were then treated with either intraperitoneal injections of vehicle (100 μl, 30% DMSO in pharmaceutical sesame oil), DHEA-S(first two doses at 0.8 mg/mouse, later doses at 0.4 mg/mouse, 100 μl), THDOC (first two doses at 0.8 mg/mouse, later doses at 0.4 mg/mouse, 100 μl), estriol-16-glucuronide (first two doses at 0.8 mg/mouse, later doses at 0.4 mg/mouse, 100 μl), androstane-3,17-diol (1.5 mg/mouse, 100 μl), Androstane-3,17-diol+progesterone (each at 0.75 mg/mouse, 100 μl), or DHEA-S+androstane-3,17-diol+progesterone (androstane-3,17-diol and progesterone each at 0.75 mg/mouse, DHEA-S at 0.27 mg/mouse for the first two doses and then 0.13 mg/mouse for the later does, 100 μl). Compound groups received the compounds via intraperitoneal injections every 8 hours, beginning 8 hours after LPS administration, up to 4 doses, and then after 12 hours before delivery.

[2] = system: uterine muscle strips from pregnant WT mice; test: myography of uterine muscle strips, oxytocin dose-response; set-up: species or system mouse; conditions: D18 strips
Procedure: (§1) Uterine muscle strips were extracted from pregnant mice and were assessed for contractibility via myography. Timed-pregnant wild-type C57/B6 mice were euthanized before making a vertical midline abdominal incision and removing each of the two uterine horns. Uterine horns were subsequently cut into 3-mm×7-mm segments and placed in a modified Krebs buffer (118 mM NaCl, […], 1.2 mM MgSO4, 1.2 mM KH2PO4, 2.5 mM CaCl2), 25 mM NaHCO3, and 11 mM glucose, pH 7.4). Muscle segments were vertically suspended on custom-made stainless steel hooks inside an organ bath filled with modified Krebs buffer, maintained at 37° C., and aerated with gas containing 95% O2 and 5% CO2. The strips were allowed to equilibrate at 1.5 g of tension for 45 min.
For the oxytocin dose-response experiments, the strips were then stimulated with oxytocin at concentrations ranging from 1 to 1000 nM, and the pattern of contraction in response to each dose was recorded for 9 min. The muscle strips were washed with Krebs solution twice and allowed to equilibrate for 3 min before the next stimulation. In separate experiments, strips were treated with the compounds before assessing the dose response to oxytocin. Contraction tracings were recorded using PowerLab and LabChart (ADInstruments).
Provided in FIGS. 5B and 5C are results of a myography experiment measuring spontaneous contractions induced by oxytocin. Myography of uterine muscle strips from pregnant WT mice at D18 was performed while incubating the strips with increasing doses of oxytocin in the presence of 1 μM Androstane-3,17-diol (black squares) or vehicle (black circles), n=4 to 7. The results are provided as old increase in area under the curve AUC (FIG. 5B), and amplitude (FIG. 5C) from baseline spontaneous contractions with vehicle and Androstane-3,17-diol. […]

[3] = system: human uterine smooth muscle cells; test: collagen gel contraction assay; type: cell-based
Pregnant C57BL/6 mice [4] = test: mouse model of severe preterm birth (3 mg/kg LPS); type: in vivo; conditions: 3 mg/kg LPS on D15
Procedure: Provided in FIG. 7 is an experimental schematic of compound treatment in mouse models of severe preterm birth. In separate experiments, pregnant C57BL/6 mice were intraperitoneally administered 3 mg/kg LPS (Escherichia coli 0127:B8, chromatographically pure, Sigma-Aldrich) or PBS (as control) on D15. Treated mice were then treated with either intraperitoneal injections of vehicle (200 μl, 15% DMSO in pharmaceutical sesame oil) or androstane-3,17-diol (1.5 mg/mouse, 200 μl) every 12 hours, up to 5 doses before delivery.
(§2) Provided in FIGS. 8A and 8B are an experimental schematic and results of tocolytic compound treatment in mouse models of severe preterm birth. In separate experiments, pregnant C57BL/6 mice were intraperitoneally administered 3 mg/kg LPS (Escherichia coli 0127:B8, chromatographically pure, Sigma-Aldrich) or PBS (as control) on D15. Treated mice were then treated with either intraperitoneal injections of vehicle or androstane-3,17-diol (1.5 mg/mouse). The androstane-3,17-diol group received […] via intraperitoneal injections every 24 hours, up to 3 days before delivery. One-third (33%) of LPS-induced preterm mice treated with androstane-3,17-diol reached full term.

Pregnant C57BL/6 mice [5] = test: treatment of healthy control mice (no LPS administration); type: in vivo; conditions: 1.5 mg/mouse intraperitoneal every 24 hours
Procedure: as §2

[6] = system: uterine muscle strips from pregnant WT mice; test: myography of uterine muscle strips, spontaneous contraction; set-up: species or system mouse
Procedure: as §1
Provided in FIG. 5A are results of a myography experiment measuring spontaneous contraction. Myography of uterine muscle strips from pregnant WT mice at D18 was performed while incubating the strips with oxytocin (OXY), Vehicle, 0.25 μM μM of DHEA-S, 1 μM of THDOC, 1 μM of estriol-16-glucuronide, or 1 μM of androstane-3,17-diol. The area under the curve was calculated for the final 180 s of each 9-min contraction tracing using GraphPad Prism (GraphPad Prism for Macintosh version 5.0; GraphPad Software). The area under the curve for each response was then normalized to the area under the curve of the baseline.
Provided in FIG. 5E are myography tracings recorded with various compound applications: 10 μM progesterone, 1 μM Androstane-3,17-diol, 0.5 μM Androstane-3,17-diol+5 μM progesterone, and 0.33 μM Androstane-3,17-diol+0.33 μM THDOC+3.3 μM progesterone. Left of the arrow is baseline contraction and to the right of the arrow indicates when the compounds were applied. […] Note that there was no obvious effect when treating the muscle with 1 μM progesterone (data not shown).

[7] = 2 mg/kg LPS on D15, compounds intraperitoneal

## C[C@]12CC[C@@H](O)C[C@H]1CC[C@@H]1[C@@H]2CC[C@]2(C)[C@@H](C(=O)CO)CC[C@@H]12 [THDOC, tetrahydrodeoxycorticosterone]
Pregnant C57BL/6 mice [1]
  gestation in vivo: prolonged gestation in vivo

## C[C@]12CC[C@@H](O)C[C@@H]1CC[C@@H]1[C@@H]2CC[C@]2(C)[C@@H](O)CC[C@@H]12 (stereo in doubt) [androstane-3,17-diol]
[2]; increasing doses of oxytocin, 1 μM Androstane-3,17-diol
  effect on oxytocin-induced uterine contractility (AUC and amplitude from baseline): reduced; also recorded: inhibits uterine muscle contraction with oxytocin stimulation
[3]; oxytocin 100 nM, 18 hours, 2.5 μM DHEA-S, 10 μM THDOC, 10 μM estriol-16-glucuronide, 10 μM androstane-3,17-diol, 2 mM progesterone
  ability to mitigate collagen retraction (gel surface area relative to no cell control): provided the best results
Pregnant C57BL/6 mice [1]; [7]
  birth outcome of preterm model females: Full-term live pups were birthed
  comparison of gestation results between treatment groups: most significant results
Pregnant C57BL/6 mice [1]
  gestation in vivo: prolonged gestation in vivo
Pregnant C57BL/6 mice [4]; 1.5 mg/mouse intraperitoneal every 12 hours, up to 5 doses
  mice that reached full-term: 1/3
Pregnant C57BL/6 mice [4]; 1.5 mg/mouse intraperitoneal every 12 hours, the mouse that reached full-term
  appearance of mom and pups: both mom and pups looked healthy
Pregnant C57BL/6 mice [4]; 1.5 mg/mouse intraperitoneal every 24 hours, up to 3 days
  LPS-induced preterm mice that reached full term: 33%
Pregnant C57BL/6 mice [5]
  gestation period: increased gestation period beyond the typical date of delivery
[6]; 1 μM Androstane-3,17-diol
  muscle contractility in myography tracings: rapid inhibition of the muscle contraction
[6]; D18 strips, 0.25 μM DHEA-S, 1 μM THDOC, 1 μM estriol-16-glucuronide, 1 μM androstane-3,17-diol
  suppression of uterine contractility (area under the curve normalized to baseline): most significant inhibition effect

## C[C@]12CC[C@H](OS(=O)(=O)O)CC1=CC[C@@H]1[C@@H]2CC[C@]2(C)C(=O)CC[C@@H]12 [DHEA-S, dehydroisoandrosterone sulfate]
Pregnant C57BL/6 mice [1]; [7]
  birth outcome of preterm model females: Full-term live pups were birthed
Pregnant C57BL/6 mice [1]
  gestation in vivo: prolonged gestation in vivo

## CC(=O)[C@H]1CC[C@H]2[C@@H]3CCC4=CC(=O)CC[C@]4(C)[C@H]3CC[C@]12C [progesterone, reference compound]
[2]; increasing doses of oxytocin, 10 μM progesterone, n=3
  effect on uterine muscle contraction with oxytocin stimulation: but progesterone inhibits uterine muscle contraction
[3]; progesterone at the same concentration as androstane-3,17-diol (10 μM)
  ability to mitigate collagen retraction: no effect
[6]; 1 μM progesterone
  muscle contractility in myography tracings: no effects
[6]; 10 μM progesterone
  muscle contractility in myography tracings: first enhanced and then gradually suppressed in peak height

## CC[C@H](C)[C@@H]1NC(=O)[C@H](Cc2ccc(O)cc2)NC(=O)[C@@H](N)CSSC[C@@H](C(=O)N2CCC[C@H]2C(=O)N[C@@H](CC(C)C)C(=O)NCC(N)=O)NC(=O)[C@H](CC(N)=O)NC(=O)[C@H](CCC(N)=O)NC1=O [Oxytocin, oxytocin, reference compound]
[2]; oxytocin 1 to 1000 nM, vehicle
  uterine contractility (AUC, amplitude): induced a dose-dependent increase in uterine contractility
